Where no end group is shown, it is not given here.
Experiments:
[1] = test system: Carcinoma cell lines, MCF-7, HCT 11 6, A549 and SNU-71; assay: MTT assay, induction of apoptosis of cancer cells; assay type: cell-based; details: cancer cells treated for 18 hrs
Experimental: Carcinoma cell lines, MCF-7, HCT 11 6, A549 and SNU-71, were cultured in RPMI 1640 medium supplemented with 10% FBS and 100 U/ml penicillin/streptomycin in a humidified 5% CO2 incubator (Gibco-BRL, UK) at 37° C. The cultured cancer cells were treated for 18 hrs with HIV-1 Tat(48-60)-p53 TAD(50-54), an alanine-substituted peptide of SEQ ID NO. 7 and a trytophane-substituted peptide of SEQ ID NO. 11. Then, induction of apoptosis of cancer cells was determined by an MTT assay using the tetrazolium salt, 3-(4,5-dimethylthiazol-2-yl)-2,5-diphenyltetrazolium bromide (MTT). In the MTT assay, after the cancer cells were incubated for 2 hrs in RPMI 1640 medium supplemented with 10% FBS and 0.5 mg/ml MTT, the medium was removed, and 100 μl of DMSO was added.
Four carcinoma cell lines were treated for 18 hrs with HIV-1 Tat(48-60)-p53 TAD(50-54), which was prepared by linking a cell permeable peptide HIV-1 Tat(48-60) consisting of amino acid residues 48-60 of the HIV-1 Tat protein of SEQ ID NO. 22 to the N-terminal end of p53 TAD(50-54), and alanine-substituted and trytophane-substituted peptides thereof. Then, the induction of apoptosis of cancer cells was determined by an MTT assay, and the cancer cells were microscopically observed.

mdm2(3-109) = target: T1, mdm2(3-109) (Homo sapiens, UniProt Q00987); assay: Chemical shift perturbation experiment (15N-1H HSQC NMR titration of 15N-mdm2(3-109) with p53 TAD or fragment peptides); assay type: binding; details: 0.2 mM 15N-mdm2(3-109), 25° C.; for binding affinity to mdm2 as indicated by chemical shift perturbation: 15N-1H HSQC titration
T1 construct: made in house; host or cells: E. coli BL21(DE3), pLM1 vector
Experimental: All NMR data were measured using a Varian Unity INOVA 600 MHz NMR spectrometer at 5° C. and 25° C. ^15N—^1H HSQC (heteronuclear single quantum coherence spectroscopy) spectra were collected with spectral widths of 8000 Hz in the ^1H dimension and 1800 Hz in the ^15N dimension, and with 1024 data points in the t2 domain and 256 data points in the t1 domain.
Also, ^15N—^1H HSQC spectra were collected for the ^15N-labeled mdm2(3-109) protein, dissolved in a buffer solution of 25 mM Tris HCl (pH 7.5), 150 mM NaCl, 2 mM DTT, 0.1 mM PMSF, 0.1 mM EDTA, 0.1 mM benzamidine and 0.02% NaN3, at 0.2 mM of ^15N-mdm2(3-109) and 25° C.
First, HSQC spectra of ^15N-mdm2(3-109) in a free state were collected (FIG. 4). […] Chemical shift assignments of mdm2(3-109) in a free and bound states were performed using 3D NMR experiments, HNCA, HNCOCA, ^15N-edited TOCSY and ^15N-edited NOESY spectrum analysis.
2D ^15N—^1H HSQC spectra were collected for the free (unbound) form of purified ^15N-labeled mdm2(3-109).

Substance	effect on apoptosis induction in cancer cells [1]	binding affinity to mdm2 as indicated by chemical shift perturbation (mdm2(3-109))	changes in chemical shift of 15N-mdm2(3-109) after addition of the peptide (mdm2(3-109); 15N-1H HSQC)
DWEQWW	greatly higher activity in inducing apoptosis than the native DIEQWF		
DVEQVV (DVEQVV-NH2) [Val-substituted peptide having I50V/W53V/F54V substitutions relative to the native p53(49-54) peptide]		low binding affinity to mdm2	small change in chemical shift
DIEQWF-NH2 [p53 TAD(49-54), DIEQWF]	effectively induces apoptosis		
DAEQAA	unable to induce apoptosis in cancer cells		
p53 TAD(1-73): recombinant p53 TAD domain corresponding to residues 1-73 of the TAD of human p53		high affinity	

From patent US8598127B2, “Peptides for inhibiting MDM2 function” (Korea Research Institute of Bioscience & Biotechnology, priority 2004, dated 2013)
